One assay addresses T1, Androgen receptor (Rattus norvegicus, UniProt P15207).
T1 sequence (P15207 whole entry): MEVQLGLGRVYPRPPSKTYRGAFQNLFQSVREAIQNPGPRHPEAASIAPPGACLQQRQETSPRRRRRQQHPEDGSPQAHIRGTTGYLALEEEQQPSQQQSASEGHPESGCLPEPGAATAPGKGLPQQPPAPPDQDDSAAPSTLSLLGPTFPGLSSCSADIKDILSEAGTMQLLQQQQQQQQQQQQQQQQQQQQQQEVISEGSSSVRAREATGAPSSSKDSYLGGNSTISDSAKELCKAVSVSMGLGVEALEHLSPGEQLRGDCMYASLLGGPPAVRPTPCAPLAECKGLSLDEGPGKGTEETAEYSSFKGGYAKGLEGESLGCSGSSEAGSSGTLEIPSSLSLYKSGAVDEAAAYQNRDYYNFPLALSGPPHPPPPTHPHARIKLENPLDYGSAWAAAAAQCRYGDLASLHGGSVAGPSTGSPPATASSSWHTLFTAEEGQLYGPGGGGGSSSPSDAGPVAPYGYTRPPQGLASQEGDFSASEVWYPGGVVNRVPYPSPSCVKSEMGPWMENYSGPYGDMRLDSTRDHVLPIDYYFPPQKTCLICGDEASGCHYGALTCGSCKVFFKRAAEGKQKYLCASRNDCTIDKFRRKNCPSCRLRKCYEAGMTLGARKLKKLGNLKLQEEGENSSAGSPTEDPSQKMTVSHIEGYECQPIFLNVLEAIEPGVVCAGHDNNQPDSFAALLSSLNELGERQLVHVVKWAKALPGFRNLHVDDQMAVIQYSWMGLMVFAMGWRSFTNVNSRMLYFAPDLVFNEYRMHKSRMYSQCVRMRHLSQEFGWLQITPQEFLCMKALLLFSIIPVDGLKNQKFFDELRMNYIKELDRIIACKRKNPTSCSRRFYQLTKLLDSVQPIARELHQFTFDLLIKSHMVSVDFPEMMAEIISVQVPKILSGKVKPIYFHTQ

Assay [1] concerns the target Voltage-gated inwardly rectifying potassium channel KCNH2 (Homo sapiens, UniProt Q12809).

Structures are written as SMILES.

Chain of Voltage-gated inwardly rectifying potassium channel KCNH2 (Q12809 whole entry): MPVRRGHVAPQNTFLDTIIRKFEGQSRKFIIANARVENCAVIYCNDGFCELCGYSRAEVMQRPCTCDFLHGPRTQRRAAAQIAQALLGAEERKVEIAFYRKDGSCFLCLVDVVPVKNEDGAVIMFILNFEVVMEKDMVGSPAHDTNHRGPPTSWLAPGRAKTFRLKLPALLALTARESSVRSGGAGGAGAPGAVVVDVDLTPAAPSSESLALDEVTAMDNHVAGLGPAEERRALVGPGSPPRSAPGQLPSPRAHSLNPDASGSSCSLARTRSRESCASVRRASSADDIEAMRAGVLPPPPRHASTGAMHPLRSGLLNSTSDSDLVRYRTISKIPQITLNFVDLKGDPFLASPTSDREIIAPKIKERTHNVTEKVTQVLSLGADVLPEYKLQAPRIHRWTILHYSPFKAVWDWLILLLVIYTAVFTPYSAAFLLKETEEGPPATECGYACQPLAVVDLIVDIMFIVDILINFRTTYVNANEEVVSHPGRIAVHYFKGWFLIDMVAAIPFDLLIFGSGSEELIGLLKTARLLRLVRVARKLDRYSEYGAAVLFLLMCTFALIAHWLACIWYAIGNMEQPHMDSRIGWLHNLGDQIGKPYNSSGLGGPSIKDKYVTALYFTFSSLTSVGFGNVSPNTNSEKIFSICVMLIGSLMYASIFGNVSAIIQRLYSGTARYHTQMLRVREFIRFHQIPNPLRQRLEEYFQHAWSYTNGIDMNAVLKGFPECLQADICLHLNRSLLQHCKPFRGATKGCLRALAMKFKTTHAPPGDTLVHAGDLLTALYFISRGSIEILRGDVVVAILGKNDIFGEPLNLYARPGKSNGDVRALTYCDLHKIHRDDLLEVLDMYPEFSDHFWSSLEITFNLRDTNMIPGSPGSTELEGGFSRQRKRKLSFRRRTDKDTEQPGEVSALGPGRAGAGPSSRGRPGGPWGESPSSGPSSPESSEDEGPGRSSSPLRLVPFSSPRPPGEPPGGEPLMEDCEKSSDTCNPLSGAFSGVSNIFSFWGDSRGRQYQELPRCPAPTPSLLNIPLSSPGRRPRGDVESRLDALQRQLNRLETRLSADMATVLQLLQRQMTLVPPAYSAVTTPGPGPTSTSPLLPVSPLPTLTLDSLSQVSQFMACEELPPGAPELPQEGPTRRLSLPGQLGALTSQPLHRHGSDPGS

On to `C[C@H]1C[C@@H]2[C@H]([C@@H](O)C[C@@]3(C)[C@H]2CC[C@]3(O)C(=O)CO)[C@@]2(C)C=CC(=O)C=C12` [METHYLPREDNISOLONE], for which, on Androgen receptor, the IC50 (in general, the concentration needed to halve the response being measured) amounted to 26.7 µM and the affinity corresponds to a Ki of 17.8 µM.

On to `CN[C@H]1CC[C@@H](c2ccc(Cl)c(Cl)c2)c2ccccc21` [SERTRALINE], for which, in assay [1], the IC50 was 8.32 µM and the Ki (commonly the equilibrium dissociation constant of an inhibitor or competing ligand from its target) turned out to be 6.81 µM.

These data come from ChEMBL document CHEMBL1909046, “DrugMatrix in vitro pharmacology data”.
